Assays:
[1] = in vivo; details: dog; for Tmax / half-life / AUC(0-inf) / AUC(0-t) / CL/F / Cmax / Vd/F: beagle, po
Method: (§1) Groups of four purpose-bred beagles per cohort were administered ascending doses of bexagliflozin in the form of a proline co-crystal consisting of two moles of L-proline for every mole of bexagliflozin. The co-crystal was dissolved in 10% PEG400 and administered by oral gavage to dogs that had been fasted overnight. Control dogs were administered 10% PEG400. One hour after dosing, glucose solution (2 g kg^−1, 5 ml kg^−1) was administered by gavage. Serum glucose concentrations were quantitated by an automated clinical chemistry analyzer for samples collected before dosing, before glucose challenge, and 15, 30, 60, and 120 min after glucose challenge. Urine was collected from 0 to 4 h, 4 to 8 h and 8 to 24 h after dosing for electrolyte analyses (Na^+, K^+, Cl^− and Ca^2+) and glucose measurement. Whole blood samples of approximately 500 μL were collected from the cephalic vein 0, 0.25, 0.5, 1, 2, 4, 8, 12 and 24 h after dosing for pharmacokinetic analysis.

[2] = test system: purpose-bred beagles; assay: 24 h urine collection (glucose excretion, volume, electrolytes) in dogs; format: in vivo, dog; details: for 24 h urine Cl^− / 24 h urine K^+ / 24 h urine Na^+ / 24 h urine Volume: mean ± SD, n=4
Method: as §1
Urine output increased in the treatment group, consistent with an osmotic diuresis or with a role for the inhibited transporters in water reuptake in the proximal tubule.

[3] = test system: Sprague-Dawley rats; assay: PPAR-γ agonist (pioglitazone)-mediated fluid retention / plasma expansion model, 7 days, drugs in drinking water; format: in vivo, rat
Text: It has been recognized in human clinical practice that an undesirable side effect of PPAR-γ agonists of the thiazolidinedione class is fluid retention and edema, which limits their use in patients with congestive heart failure. The mechanism of action of the thiazolidinediones is believed to be through stimulation of expression of the epithelial sodium channel (ENaC) in the kidney, resulting in an increased uptake of sodium ions from the distal tubule. Sodium retention and the associated expansion of extracellular fluid volume are characteristic features of congestive heart failure in multiple species. […] The sodium channel blocker amiloride was delivered in drinking water to a third group of rats as a comparator. Plasma expansion was measured by hematocrit. […] Food weight was recorded to measure consumption over the course of the experiment. […] Full bottles were pre-weighed and the weights recorded to allow consumption to be measured over the course of the experiment. On days 1 and 7, rats were warmed using a heating pad and lightly anesthetized using isoflurane. Using a sterile scalpel blade, a small tail nick was made on the distal one third of the tail. Blood was collected in a heparinized microcapillary tube sealed with putty at one end and stored on ice until centrifugation (5000 rpm, 5 min). Plasma volume was determined using a microhematocrit capillary tube reader card. On day 7, rats, food and water bottles were again weighed and recorded and hematocrits were determined using blood collected by a tail nick.

[4] = rats, day 1 to day 7, mean ± SEM
[5] = rats, pioglitazone diet, mean ± SEM
[6] = rats, relative to day 1, mean ± SEM

## OC[C@H]1O[C@@H](c2ccc(Cl)c(Cc3ccc(OCCOC4CC4)cc3)c2)[C@H](O)[C@@H](O)[C@@H]1O [Bexagliflozin, (2S,3R,4R,5 S,6R)-2-(4-chloro-3-(4-(2-cyclopropoxyethoxy)benzyl)phenyl)-6-(hydroxymethyl)tetrahydro-2H-pyran-3,4,5-triol]
[1]
  Tmax: ~0.5 h
  half-life: 1.67 to 5.23 h
  dose proportionality of Cmax and AUC: roughly dose proportional
[1]; 0.02 mg/kg
  AUC(0-inf): 45.3 ± 7.9 ng·h/mL
  AUC(0-t): 35.6 ± 5.2 ng·h/mL
  CL/F: 7.6 mL/min/kg
  Cmax: 16.3 ± 2.7 ng/mL
  Tmax: 0.5 h
  Vd/F: 1.08 ± 0.128 L/kg
  half-life: 1.67 ± 0.26 h
[1]; 0.067 mg/kg
  AUC(0-inf): 257 ± 62 ng·h/mL
  AUC(0-t): 240 ± 55 ng·h/mL
  CL/F: 4.53 mL/min/kg
  Cmax: 72.9 ± 11 ng/mL
  Tmax: 0.5 h
  Vd/F: 1.06 ± 0.067 L/kg
  half-life: 2.81 ± 0.61 h
[1]; 0.2 mg/kg
  AUC(0-inf): 769 ± 95 ng·h/mL
  AUC(0-t): 725 ± 80 ng·h/mL
  CL/F: 4.42 mL/min/kg
  Cmax: 233 ± 26 ng/mL
  Tmax: 0.25 h
  Vd/F: 1.12 ± 0.08 L/kg
  half-life: 2.95 ± 0.28 h
[1]; 0.67 mg/kg
  AUC(0-inf): 2670 ± 131 ng·h/mL
  AUC(0-t): 2600 ± 104 ng·h/mL
  CL/F: 4.2 mL/min/kg
  Cmax: 801 ± 46 ng/mL
  Tmax: 0.5 h
  Vd/F: 1.89 ± 0.398 L/kg
  half-life: 5.23 ± 1.23 h
[1]; 2 mg/kg
  AUC(0-inf): 8700 ± 1470 ng·h/mL
  AUC(0-t): 8600 ± 1520 ng·h/mL
  CL/F: 3.95 mL/min/kg
  Cmax: 2200 ± 539 ng/mL
  Tmax: 0.5 h
  Vd/F: 1.37 ± 0.601 L/kg
  half-life: 3.89 ± 0.88 h
[2]; dogs, 0.02 mg kg^−1 oral
  24 h urine Cl^−: 307.4 ± 87.7 mg
  24 h urine K^+: 426.2 ± 62.1 mg
  24 h urine Na^+: 178.7 ± 16.7 mg
  24 h urine Volume: 118.0 ± 30.8 mL
[2]; dogs, 0.067 mg kg^−1 oral
  24 h urine Cl^−: 403.4 ± 111.4 mg
  24 h urine K^+: 476.8 ± 96.5 mg
  24 h urine Na^+: 220.9 ± 53.9 mg
  24 h urine Volume: 153.1 ± 44.5 mL
[2]; dogs, 0.20 mg kg^−1 oral
  24 h urine Cl^−: 526.5 ± 127.8 mg
  24 h urine K^+: 558.8 ± 118.2 mg
  24 h urine Na^+: 275.7 ± 69.5 mg
  24 h urine Volume: 214.1 ± 53.5 mL
[2]; dogs, 0.67 mg kg^−1 oral
  24 h urine Cl^−: 573.9 ± 166.5 mg
  24 h urine K^+: 587.7 ± 113.5 mg
  24 h urine Na^+: 300.2 ± 66.4 mg
  24 h urine Volume: 225.0 ± 66.9 mL
[2]; dogs, 2.0 mg kg^−1 oral
  24 h urine Cl^−: 595.8 ± 80.6 mg
  24 h urine K^+: 599.7 ± 93.5 mg
  24 h urine Na^+: 313.1 ± 35.1 mg
  24 h urine Volume: 247.7 ± 35.2 mL
[2]; dogs, approximately 1 mg kg^−1 once daily
  % of the maximum pharmacological effect: approximately 90%
[2]; dogs, average mass 5.84 kg
  maximum urinary glucose excretion per body mass: 4.23 g glucose per kg of body mass
[2]; dogs, dose 50 μg kg^−1, based on results in beagle dogs
  % of the maximum pharmacodynamic effect: 30%
[2]; dogs, dose 100 μg kg^−1
  % of the maximum pharmacodynamic effect: 46%
[2]; dogs, dose 200 μg kg^−1
  % of the maximum pharmacodynamic effect: 63%
[2]; dogs, dose 400 μg kg^−1
  % of the maximum pharmacodynamic effect: 77%
[2]; dogs, dose 800 μg kg^−1
  % of the maximum pharmacodynamic effect: 87%
[2]; dogs, dose 1600 μg kg^−1
  % of the maximum pharmacodynamic effect: 93%
[2]; dogs, dose 3200 μg kg^−1
  % of the maximum pharmacodynamic effect: 96%
[2]; dogs, eighth value, no matching dose printed
  % of the maximum pharmacodynamic effect: 98%
[2]; dogs, simple logistic model fit
  Emax for urinary glucose excretion: 24.69 g of glucose in 24 h
[2]; dogs, simple logistic model fit, doses 0.02 to 2.0 mg kg^−1
  ED50 for 24 h urinary glucose excretion: 0.116 mg/kg
[2]; urinary glucose excretion ED50, dogs vs cats
  potency by ED50 in dogs relative to cats: approximately 4 times
[3]; rats after 7 days pioglitazone diet, group mean ± SEM
  Plasma volume, Day 7: 54.7 ± 0.6 % of blood volume
[3]; rats on 0.03% pioglitazone diet, by hematocrit, group mean ± SEM
  Plasma volume, Day 1: 52.9 ± 0.5 % of blood volume
[3]; rats, 7 days
  Effect on pioglitazone-mediated plasma expansion (conclusion): substantially attenuates pioglitazone-mediated plasma expansion
[3]; [4]
  Body Weight (%), Δ (percent mass gain): 4.8 ± 1.3 %
  Body Weight (g), Δ: 17.5 ± 4.7 g
[3]; rats, day 1 to day 7, mean ± SEM, listed as bexagliflozin
  Body Weight (%), Δ (percent mass gain): 4.8%
[3]; rats, pioglitazone diet, group mean ± SEM
  Plasma volume, Δ (day 1 to day 7): 1.8 ± 0.8 % of blood volume
[3]; [5]
  Body Weight (g), Day 1: 371.7 ± 5.0 ^ g
  Body Weight (g), Day 7: 389.2 ± 5.7 ^†† g
[3]; [6]
  Body Weight (%), Day 1: 100 ± 0 ^ %
  Body Weight (%), Day 7: 104.8 ± 1.3 ^†† %
